Legend:
Format in all cases: cell-based
[1] = tested on: utricular epithelium from seven day-old rats; test: BrdU incorporation (mitogenic activity) in primary culture of infant rat utricular sensory epithelium; settings: for number of BrdU-positive nuclei per piece of epithelium: 50 ng/ml, seventy-two hours culture, infant (seven day-old) rat epithelium, control 50±7
Procedure: (§1) Sensory edithelial cells obtained from utricles in the inner ear of both seven day-old (infant) rats and six week-old (adult) rats were isolated with the use of thermolysin treatment; see Corwin et al., Abstracts of the Association for Research in Otolaryngology, Volume 18, page 87 (1995). All edges were trimmed away and the central portion of the epithelium was cut into quarters. Epithelial cells from the infant rats were cultured in DMEM/F12 with 10% FBS (Gibco BRL, Grand Island, N.Y.), and 3 micrograms per milliliter (μg/ml) of mitosis tracer BrdU (Aldrich Chemicals, Milwaukee, Wis.) for seventy-two hours, with or without 50 nanograms per milliliter (ng/ml) of the peptide of SEQ ID NO: 1 or 50 ng/ml of recombinant derived FGF-10, recombinant derived FGF-16, recombinant derived ciliary-derived neurotrophic factor (CNTF), recombinant derived neurotrophic growth facor (NGF), recombinant derived glial-derived neurotrophic factor (GDNF), recombinant derived keratinocyte growth factor (KGF), or a control (no growth factor present). The experiment was ended by fixing in 4% paraformaldehyde for one hour.
After several washes, the explants were immunostained for calretinin (a vestibular organ hair cell marker) using rabbit antiserum (SWant Swiss Antibodies, Belinzona, Switzerland), diluted 1:10,000. The secondary antibody was goat anti-rabbit immunoglobulin conjugated to biotin, diluted 1:1,000. Extensive washes were followed by incubating the explants with egg white avidin conjugated to Cy3, diluted 1:1,000. The explants were fixed again with paraformaldehyde as described above, then processed for BrdU immunostaining (a measure of cell proliferation) using standard immunostaining protocols. The mouse monoclonal ant-BrdU antibody was obtained from Caltag Laboratories of San Franscisco, Calif. The secondary antibody, a goat anti-mouse conjugated to FITC, was obtained from Antibodies, Inc. of Davis, Calif.

[2] = tested on: adult rat utricular epithelium; test: BrdU incorporation (mitogenic activity) in primary culture of adult rat utricular sensory epithelium; settings: adult (six week-old) rat, thirteen days culture, factor added for the last five days, BrdU last two days
Procedure: as §1
For the adult rats, the total time for cell culture was thirteen days, with the peptide of SEQ ID NO: 1 or other growth factor being added for the last five days and the BrdU ([…]) for the last two days. The experiment was ended as above by fixing the explants in paraformaldehyde. […]

[3] = tested on: utricular cell line derived from a transgenic mouse; test: Cell proliferation by ELISA for BrdU in established utricular cell line; settings: 50 ng/ml added twenty-four hours prior to fixation, BrdU final sixteen hours
Procedure: An established utricular cell line was derived from a transgenic mouse, using the procedure described by Gu et al. in Abstracts of the Association for Research in Otolaryngology, Volume 21, page 16 (1998). The cell line was cultured at 37° C. for three days in DMEM/F12 (Gibco BRL), containing N2 supplement (Sigma Chemical Company, St. Louis, Mo.) in a proportion of 1:100, under conditions restricting oncogene expression. For the treated group, fifty nanograms per milliliter of the peptide of SEQ ID NO: 1 were added twenty-four hours prior to fixation. Three micrograms per milliliter of BrdU (Aldrich Chemicals) were added for the final sixteen hours.
Cell proliferation was measured by ELISA for BrdU. Briefly, cells were fixed with 4% paraformaldehyde (Amersham, Life Sciences, Cleveland, Ohio) for one hour at room temperature. After treatment with 2N HCl for twenty minutes, the cells were washed and then sequentially incubated for one hour with a monocolonal antibody against BrdU (Caltag Laboratories) and horse anti-mouse antibody conjugated to biotin (Vector Laboratories, Burlingame, Calif.). After washing, the cells were further incubated with Europium streptavidin (Wallac Inc., Gaithersburg, Md.) diluted 1:1,000 and processed for time-resolved fluorescence in accordance with the manufacturer's recommendations. The signal was read on a Victor 1420 multi-label counter (Wallac Inc.).

[4] = tested on: young rat utricular sensory epithelial cells; test: Comparison with other NDF/heregulins, BrdU-positive nuclei in primary culture; settings: 50 ng/ml, FIG. 5
Procedure: as §1
After several washes, the explants were immunostained for calretinin (a vestibular organ hair cell marker) using rabbit antiserum (SWant Swiss Antibodies, Belinzona, Switzerland), diluted 1:10,000. […]

Substance | number of BrdU-positive nuclei per piece of epithelium [1] | presence of BrdU-positive nuclei in supporting cells versus control (untreated) cells ([1]; infant rat sensory epithelium primary culture, FIGS. 4A and 4B) | increase in proliferation of adult rat sensory epithelial cells over the control group [2] [fold] | ELISA reading (BrdU) relative to control (untreated) group [3] [times] | increase in induction of cell proliferation over the control [4] [fold]
SHLVKCAEKEKTFCVNGGECFMVKDLSNPSRYLCKCQPGFTGARCQNYVMAS [SEQ ID NO: 1, hybrid form derived from the EGF-like domains of NDF-α and NDF-β] | 397±33 | very noticeable increase | 32.5 | 1.7 | 29
FGF-16: recombinant derived FGF-16 [reference compound] | 100±16 |  |  |  | 
NGF: recombinant derived neurotrophic growth facor (NGF) [reference compound] | 50±9 |  |  |  | 

Reference: patent US6017886A, “Use of NDF peptide as growth factor for sensory epithelium” (Amgen Inc., priority 1999, dated 2000)
